Assay results: patent US9440930B2, “Substituted bicyclic dihydropyrimidinones and their use as inhibitors of neutrophil elastase activity” (Boehringer Ingelheim International GmbH, priority 2014, dated 2016)

Columns and labels:
[1] = target: T1, Human neutrophil elastase (Homo sapiens, UniProt P08246); assay: Human Neutrophil Elastase Assay; assay type: biochemical; settings: substrate MeOSuc-Ala-Ala-Pro-Val-AMC 250 μM, pH 7.5, room temperature
T1 construct: purchased Calbiochem 324681
T1 sequence (P08246 30-247 limits assumed): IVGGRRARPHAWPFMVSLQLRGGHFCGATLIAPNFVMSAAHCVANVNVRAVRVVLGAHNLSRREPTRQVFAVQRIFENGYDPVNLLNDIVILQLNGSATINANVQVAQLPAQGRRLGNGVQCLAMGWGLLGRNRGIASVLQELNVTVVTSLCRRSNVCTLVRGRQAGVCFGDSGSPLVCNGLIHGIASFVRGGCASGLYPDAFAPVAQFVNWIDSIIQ
Excerpt: Human Neutrophil Elastase Assay

[2] = Drug transport across human Caco-2 cells; assay type: in vitro ADME; settings: pH 7.2, 37° C.; for Papp A→B at 10 µM: apical-to-basal, read-out: PEAB; for Papp B→A at 10 µM: basal-to-apical, read-out: PEBA
Excerpt: Assay for Determination of Drug Transport Across Human Caco-2 Cells
The assay provides information on the potential of a compound to pass the cell membrane, on the extent of oral absorption as well as on whether the compound is actively transported by uptake and/or efflux transporters. For the measurement of permeability across polarized, confluent human cancer colon carcinoma cells 2 (Caco-2) cell monolayers grown on permeable filter supports are used as the in vitro absorption model.
Apparent permeability coefficients (PE) of the compounds across the Caco-2 monolayers are measured (pH 7.2, 37° C.) in apical-to-basal (AB) (absorptive) and basal-to-apical (BA) (secretory) transport direction. AB permeability (PEAB) represents drug absorption from the intestine into the blood and BA permeability (PEBA) drug secretion from the blood back into the intestine via both passive permeability as well as active transport mechanisms mediated by efflux and uptake transporters that are expressed on the Caco-2 cells. The compounds are assigned to permeability/absorption classes by comparison of the AB permeabilities with the AB permeabilities of reference compounds with known in vitro permeability and oral absorption in the human. Identical or similar permeabilities in both transport directions indicate passive permeation, vectorial permeability points to additional active transport mechanisms. […] Active transport is concentration-dependently saturable.
Caco-2 cells (1-2*10^5 cells/cm^2 area) are seeded on filter inserts (Costar transwell polycarbonate or PET filters, 0.4 μm pore size) and cultured (DMEM) for 10 to 25 days. Compounds are dissolved in appropriate solvent (like DMSO, 1-20 min stock solutions). Stock solutions are diluted with HTP-4 buffer (128.13 min NaCl, 5.36 min KCl, 1 mM MgSO4, 1.8 min CaCl2, 4.17 min NaHCO3, 1.19 min Na2HPO4×7H2O, 0.41 mM NaH2PO4×H2O, 15 min HEPES, 20 min glucose, pH 7.2) to prepare the transport solutions (typically 10 μM compound, final DMSO<=0.5%). The transport solution (TL) is applied to the apical or basolateral donor side for measuring A-B or B-A permeability (3 filter replicates), respectively. The receiver side contains HTP-4 buffer supplemented with 2% BSA. Samples are collected at the start and end of experiment from the donor and at various time intervals for up to 2 hours also from the receiver side for concentration measurement by LC-MS/MS or scintillation counting. Sampled receiver volumes are replaced with fresh receiver solution.

[3] = Metabolic stability with human liver microsomes; assay type: in vitro ADME; settings: pooled human liver microsomes, pH 7.6; human liver microsomes 1 mg/ml, 1 μM compound, 37° C., NADPH; read-out: t1/2 INVITRO
[4] = target: T2, neutrophil elastase in human plasma (Homo sapiens, UniProt P08246); assay: Neutrophil elastase inhibitory activity in human plasma; assay type: biochemical; settings: zymosan-stimulated human plasma, substrate MeOSuc-Ala-Ala-Pro-Val-AMC 250 μM
T2 construct: The stimulated blood is centrifuged to generate the neutrophil elastase enriched plasma; from tissue; host or cells: plasma from zymosan-stimulated citrated whole blood of healthy human donors
T2 sequence (P08246 30-267): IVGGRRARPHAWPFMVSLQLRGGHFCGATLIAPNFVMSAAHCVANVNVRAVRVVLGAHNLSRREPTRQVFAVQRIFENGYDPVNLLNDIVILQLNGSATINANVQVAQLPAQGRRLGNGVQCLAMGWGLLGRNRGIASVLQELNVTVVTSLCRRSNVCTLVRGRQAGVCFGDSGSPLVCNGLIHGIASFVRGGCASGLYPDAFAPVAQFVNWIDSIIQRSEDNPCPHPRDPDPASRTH
Protocol: Assay for the Determination of Neutrophil Elastase Inhibitory Activity in Human Plasma
Citrated blood from human healthy donors is mixed with zymosan suspension and incubated at room temperature. This leads to the stimulation of neutrophils and the release of neutrophil elastase into the plasma. The stimulated blood is centrifuged to generate the neutrophil elastase enriched plasma.
• A single 45 ml blood sample is taken into a 50 ml tube containing citrate (3.13%, 5 mL) and the tube is gently inverted 4 times. • Immediately after blood sampling, zymosan working solution (5 mL) is added. • After the addition of zymosan working solution, the tubes are capped, mixed gently and incubated at 22° C. for 15 min on a shaker at 20 rpm. • Make 10 ml aliquots after the incubation time. • Centrifuge the 15 ml tubes at 800 g for 15 min at 4° C. in a Jouan centrifuge. • Harvest the plasma and make 1-5 ml aliquots. • Store the plasma at −80° C.
A dose response curve is generated to calculate the EC50 of the inhibitor. The analysis of the data is performed by the calculation of the percentage of fluorescence in the presence of the test compound compared to the fluorescence of the vehicle control after subtracting the background fluorescence: An inhibitor of the neutrophil elastase enzyme will give values between 100% control (no inhibition) and 0% control (complete inhibition).

Compound | IC50 [1] [nM] | other results
C[S+]([O-])c1cc(C#N)ccc1C1NC(=O)N(c2cccc(C(F)(F)F)c2)C2=C1C(=O)CCC2 (single isomer, unassigned) [Example 1.1B, 4-[2,5-Dioxo-1-(3-trifluoromethyl-phenyl)-1,2,3,4,5,6,7,8-octahydro-quinazolin-4-yl]-3-methanesulfinyl-benzonitrile] | 7.4 | 
C[S+]([O-])c1cc(C#N)ccc1C1NC(=O)N(c2cccc(C(F)(F)F)c2)C2=C1C(=O)CCC2 (single isomer, unassigned) [Example 1.2, 4-[2,5-Dioxo-1-(3-trifluoromethyl-phenyl)-1,2,3,4,5,6,7,8-octahydro-quinazolin-4-yl]-3-methanesulfinyl-benzonitrile] | 4.2 | 
CN1C(=O)N(c2cccc(C(F)(F)F)c2)C2=C(C(=O)CCC2)C1c1ccc(C#N)cc1[S+](C)[O-] (single isomer, unassigned) [Example 2.1B, 3-Methanesulfinyl-4-[3-methyl-2,5-dioxo-1-(3-trifluoromethyl-phenyl)-1,2,3,4,5,6,7,8-octahydro-quinazolin-4-yl]-benzonitrile] | 134 | 
CN1C(=O)N(c2cccc(C(F)(F)F)c2)C2=C(C(=O)CCC2)C1c1ccc(C#N)cc1[S+](C)[O-] (single isomer, unassigned) [Example 2.2B, 3-Methanesulfinyl-4-[3-methyl-2,5-dioxo-1-(3-trifluoromethyl-phenyl)-1,2,3,4,5,6,7,8-octahydro-quinazolin-4-yl]-benzonitrile] | 100 | 
CS(=O)(=O)c1cc(C#N)ccc1C1C2=C(CCCC2=O)N(c2cccc(C(F)(F)F)c2)C(=O)N1CC1COC1 (single isomer, unassigned) [Example 5B, 3-Methanesulfonyl-4-[3-oxetan-3-ylmethyl-2,5-dioxo-1-(3-trifluoromethyl-phenyl)-1,2,3,4,5,6,7,8-octahydro-quinazolin-4-yl]-benzonitrile] | 157 | 
N#Cc1ccc(C2NC(=O)N(c3cccc(C(F)(F)F)c3)C3=C2C(=O)CCC3)c(S(=O)(=O)CCO)c1 (stereo not shown) [Example 4, 4-[2,5-Dioxo-1-(3-trifluoromethyl-phenyl)-1,2,3,4,5,6,7,8-octahydro-quinazolin-4-yl]-3-(3-hydroxy-ethane-1-sulfonyl)-benzonitrile] | 7 | 
N#Cc1ccc(C2NC(=O)N(c3cccc(C(F)(F)F)c3)C3=C2C(=O)CCC3)c(S(=O)(=O)CCCO)c1 (stereo not shown) [Example 4.1] | 5.6 | 
COCCS(=O)(=O)c1cc(C#N)ccc1C1NC(=O)N(c2cccc(C(F)(F)F)c2)C2=C1C(=O)CCC2 (stereo not shown) [Example 4.2] | 11 | 

These reach a lower IC50 [1]. Values come first.

IC50 [1] [nM] | Compound | other results
2 | C[S+]([O-])c1cc(C#N)ccc1C1NC(=O)N(c2cccc(C(F)(F)F)c2)C2=C1C(=O)CCC2 (single isomer, unassigned) [Example 1.1, 4-[2,5-Dioxo-1-(3-trifluoromethyl-phenyl)-1,2,3,4,5,6,7,8-octahydro-quinazolin-4-yl]-3-methanesulfinyl-benzonitrile] | 
< 1 | C[S+]([O-])c1cc(C#N)ccc1C1NC(=O)N(c2cccc(C(F)(F)F)c2)C2=C1C(=O)CCC2 (single isomer, unassigned) [Example 1.1A, 4-[2,5-Dioxo-1-(3-trifluoromethyl-phenyl)-1,2,3,4,5,6,7,8-octahydro-quinazolin-4-yl]-3-methanesulfinyl-benzonitrile] | 
< 1 | CN1C(=O)N(c2cccc(C(F)(F)F)c2)C2=C(C(=O)CCC2)C1c1ccc(C#N)cc1[S+](C)[O-] (single isomer, unassigned) [Example 2.1, 3-Methanesulfinyl-4-[3-methyl-2,5-dioxo-1-(3-trifluoromethyl-phenyl)-1,2,3,4,5,6,7,8-octahydro-quinazolin-4-yl]-benzonitrile] | 
1.2 | CN1C(=O)N(c2cccc(C(F)(F)F)c2)C2=C(C(=O)CCC2)C1c1ccc(C#N)cc1[S+](C)[O-] (single isomer, unassigned) [Example 2.2, 3-Methanesulfinyl-4-[3-methyl-2,5-dioxo-1-(3-trifluoromethyl-phenyl)-1,2,3,4,5,6,7,8-octahydro-quinazolin-4-yl]-benzonitrile] | 
< 1 | CNC(=O)N1C(=O)N(c2cccc(C(F)(F)F)c2)C2=C(C(=O)CCC2)C1c1ccc(C#N)cc1[S+](C)[O-] (single isomer, unassigned) [Example 3.1, 4-(4-Cyano-2-methanesulfinyl-phenyl)-2,5-dioxo-1-(3-trifluoromethyl-phenyl)-1,4,5,6,7,8-hexahydro-2H-quinazoline-3-carboxylic acid methylamide] | 
< 1 | CNC(=O)N1C(=O)N(c2cccc(C(F)(F)F)c2)C2=C(C(=O)CCC2)C1c1ccc(C#N)cc1[S+](C)[O-] (single isomer, unassigned) [Example 3.2, 4-(4-Cyano-2-methanesulfinyl-phenyl)-2,5-dioxo-1-(3-trifluoromethyl-phenyl)-1,4,5,6,7,8-hexahydro-2H-quinazoline-3-carboxylic acid methylamide] | 
1 | CS(=O)(=O)c1cc(C#N)ccc1C1C2=C(CCCC2=O)N(c2cccc(C(F)(F)F)c2)C(=O)N1CC1COC1 (single isomer, unassigned) [Example 5A, 3-Methanesulfonyl-4-[3-oxetan-3-ylmethyl-2,5-dioxo-1-(3-trifluoromethyl-phenyl)-1,2,3,4,5,6,7,8-octahydro-quinazolin-4-yl]-benzonitrile] | Papp A→B at 10 µM [2]: 12 ×10⁻⁶ cm/s; Papp B→A at 10 µM [2]: 89 ×10⁻⁶ cm/s; half-life at 1 μM [3]: 1.23 h; EC50 [4]: 1 nM
< 1 | CN1C(=O)N(c2cccc(C(F)(F)F)c2)C2=C(C(=O)CCC2)C1c1ccc(C#N)cc1S(=O)(=O)CCCO (stereo not shown) [Example 4.4] | Papp A→B at 10 µM [2]: 8.4 ×10⁻⁶ cm/s; Papp B→A at 10 µM [2]: 110 ×10⁻⁶ cm/s; half-life at 1 μM [3]: 1.67 h; EC50 [4]: 2 nM
1 | CN1C(=O)N(c2cccc(C(F)(F)F)c2)C2=C(C(=O)CCC2)C1c1ccc(C#N)cc1CO (stereo not shown) [Example 7, 3-Hydroxymethyl-4-[3-methyl-2,5-dioxo-1-(3-trifluoromethyl-phenyl)-1,2,3,4,5,6,7,8-octahydro-quinazolin-4-yl]-benzonitrile] | 
